From patent US8802597B2, “Herbicidal pyrimidines” (E I du Pont de Nemours and Company, priority 2003, dated 2014)

Experiments:
Type in all cases: in vivo
[1] = test system: Canada thistle (Cirsium arvense); assay: Test L field study, Compound 1 and nicosulfuron; settings: Compound 1 125 g a.i./ha, approximately 56 days after treatment
Source text: (§1) This field study included treatments that consisted of Compound 1 and nicosulfuron alone and in combination on Canada thistle (Cirsium arvense) and daisy fleabane (Erigeron spp.). The plants ranged from 20 to 30 cm in height at the time of application during the month of May in the vicinity of Newark, Del. Compound 1 was formulated as a wettable powder containing 25% active ingredient by weight. Nicosulfuron was in the form of Accent® Herbicide, a water-dispersible granule formulation containing 75% active ingredient by weight. The formulations were dispersed in water in the sprayer tank before treatment. The treatments were made using a backpack sprayer calibrated to deliver 24 gallons per acre (224 L per hectare) to a 10 ft×30 ft (3 m×9 m) plot. Each treatment was replicated two times. The effects on the plants approximately 56 days after treatment were visually compared to untreated controls. Plant response ratings were calculated as the means of the two replicates, based on a scale of 0 to 100 where 0 is no effect and 100 is complete control. Colby's Equation was used to determine the herbicidal effects expected from the mixture.

[2] = test system: daisy fleabane (Erigeron spp.); assay: Test L field study, Compound 1 and nicosulfuron; settings: Compound 1 125 g a.i./ha, approximately 56 days after treatment
Source text: as §1

[3] = test system: ducksalad (HETLI; Heteranthera limosa); assay: Test J mixtures of compound 58 with azimsulfuron, flooded paddy; settings: 21 days, scale 0-100
Source text: (§2) This test evaluated the effect of mixtures of compound 58 with azimsulfuron on several plant species. Three plastic pots (ca. 16-cm diameter) per rate were partially filled with sterilized Tama silt loam soil comprising a 35:50:15 ratio of sand, silt and clay and 2.6% organic matter. Separate plantings for each of the three pots were as follows. Seeds from the U.S. of ducksalad (HETLI; Heteranthera limosa), smallflower umbrella sedge (CYPDI; Cyperus difformis) and purple redstem (AMMCO; Ammannia coccinea), were planted into one 16-cm pot for each rate. Seeds from the U.S. of bearded sprangletop (LEFUF; Leptochloa fusca ssp. fascicularis), one stand of 9 or 10 water-seeded rice seedlings (ORYSW; Oryza sativa cv. ‘Japonica-M202’), and one stand of 6 transplanted rice seedlings (ORYSP; Oryza sativa cv. ‘Japonica-M202’) were planted into one 16-cm pot for each rate. Seeds from the U.S. of barnyardgrass (ECHCG; Echinochloa crus-galli), late watergrass (ECOR2; Echinochloa oryzicola), early watergrass (ECHOR; Echinochloa oryzoides) and junglerice (ECHCO; Echinochloa colona) were planted into one 16-cm pot for each rate. Plantings were sequential so that crop and weed species were at the 2.0 to 2.5-leaf stage at time of treatment.
(§3) Potted plants were grown in a greenhouse with day/night temperature settings of 29.5/26.7° C., and supplemental balanced lighting was provided to maintain a 16-hour photoperiod. Test pots were maintained in the greenhouse until test completion.
(§4) At time of treatment, test pots were flooded to 3 cm above the soil surface and then treated by application directly to the paddy water of test compounds formulated in a non-phytotoxic solvent mixture which included a surfactant. The pots were maintained at the 3-cm water depth for the duration of the test. Treatments consisted of compound 58 and azimsulfuron alone and in combination. Effects of treatments on rice and weeds were visually evaluated by comparison to untreated controls after 21 days. Plant response ratings were calculated as the means of the three replicates and are summarized in Table J. The ratings are based on a scale of 0 to 100 where 0 is no effect and 100 is complete control. A dash (-) response means no test result. Colby's Equation was used to determine the herbicidal effects expected from the mixtures.

[4] = test system: late watergrass (ECOR2; Echinochloa oryzicola); assay: as above; settings: 21 days, scale 0-100
Source text: as §2, §3, §4

[5] = test system: smallflower umbrella sedge (CYPDI; Cyperus difformis); assay: as above; settings: 21 days, scale 0-100
Source text: as §2, §3, §4

[6] = test system: bearded sprangletop (LEFUF; Leptochloa fusca ssp. fascicularis); assay: as above; settings: 21 days, scale 0-100
Source text: as §2, §3, §4

[7] = test system: water-seeded rice seedlings (ORYSW; Oryza sativa cv. ‘Japonica-M202’); assay: as above; settings: 21 days, scale 0-100
Source text: as §2, §3, §4

[8] = test system: purple redstem (AMMCO; Ammannia coccinea); assay: as above; settings: 21 days, scale 0-100
Source text: as §2, §3, §4

[9] = test system: transplanted rice seedlings (ORYSP; Oryza sativa cv. ‘Japonica-M202’); assay: as above; settings: 21 days, scale 0-100
Source text: as §2, §3, §4

[10] = test system: early watergrass (ECHOR; Echinochloa oryzoides); assay: as above; settings: 21 days, scale 0-100
Source text: as §2, §3, §4

CCOC(=O)c1nc(C2CC2)nc(N)c1Br [Compound 1, ethyl 6-amino-5-bromo-2-cyclopropyl-4-pyrimidinecarboxylate]
73: Obsd. observed effect (0 to 100 scale) [1]
53: Obsd. observed effect (0 to 100 scale) [2]

COC(=O)c1nc(-c2ccc(Cl)cc2)nc(N)c1Cl [Compound 58, methyl 6-amino-5-chloro-2-(4-chlorophenyl)-4-pyrimidinecarboxylate]
0: ECOR2 Obsd. ([4]; Compound 58 16 g a.i./ha alone) | ECOR2 Obsd. ([4]; Compound 58 32 g a.i./ha alone) | ECOR2 Obsd. ([4]; Compound 58 64 g a.i./ha alone) | LEFUF Obsd. ([6]; Compound 58 16 g a.i./ha alone) | LEFUF Obsd. ([6]; Compound 58 32 g a.i./ha alone) | AMMCO Obsd. ([8]; Cmpd 58 16 g a.i./ha alone) | ORYSP Obsd. ([9]; Cmpd 58 16 g a.i./ha alone) | ORYSP Obsd. ([9]; Cmpd 58 32 g a.i./ha alone) | ORYSP Obsd. ([9]; Cmpd 58 64 g a.i./ha alone) | ECHOR Obsd. ([10]; Compound 58 16 g a.i./ha alone) | ECHOR Obsd. ([10]; Compound 58 32 g a.i./ha alone) | ECHOR Obsd. ([10]; Compound 58 64 g a.i./ha alone)
20: LEFUF Obsd. ([6]; Compound 58 64 g a.i./ha alone) | ORYSW Obsd. ([7]; Cmpd 58 64 g a.i./ha alone)
100: HETLI Obsd. ([3]; Cmpd 58 16 g a.i./ha alone) | HETLI Obsd. ([3]; Cmpd 58 32 g a.i./ha alone) | HETLI Obsd. ([3]; Cmpd 58 64 g a.i./ha alone) | CYPDI Obsd. ([5]; Cmpd 58 16 g a.i./ha alone) | CYPDI Obsd. ([5]; Cmpd 58 32 g a.i./ha alone) | CYPDI Obsd. ([5]; Cmpd 58 64 g a.i./ha alone)
90: AMMCO Obsd. ([8]; Cmpd 58 64 g a.i./ha alone)
10: ORYSW Obsd. ([7]; Cmpd 58 16 g a.i./ha alone) | ORYSW Obsd. ([7]; Cmpd 58 32 g a.i./ha alone)
30: AMMCO Obsd. ([8]; Cmpd 58 32 g a.i./ha alone)
